In patent US20110039847A1, “AMIDE DERIVATIVES AS SIRTUIN MODULATORS” (Sirtris Pharmaceuticals, Inc, priority 2007, published 2011):

Biological target: T1, SIRT1 (Homo sapiens, UniProt Q96EB6)
T1 sequence (Q96EB6 1-747): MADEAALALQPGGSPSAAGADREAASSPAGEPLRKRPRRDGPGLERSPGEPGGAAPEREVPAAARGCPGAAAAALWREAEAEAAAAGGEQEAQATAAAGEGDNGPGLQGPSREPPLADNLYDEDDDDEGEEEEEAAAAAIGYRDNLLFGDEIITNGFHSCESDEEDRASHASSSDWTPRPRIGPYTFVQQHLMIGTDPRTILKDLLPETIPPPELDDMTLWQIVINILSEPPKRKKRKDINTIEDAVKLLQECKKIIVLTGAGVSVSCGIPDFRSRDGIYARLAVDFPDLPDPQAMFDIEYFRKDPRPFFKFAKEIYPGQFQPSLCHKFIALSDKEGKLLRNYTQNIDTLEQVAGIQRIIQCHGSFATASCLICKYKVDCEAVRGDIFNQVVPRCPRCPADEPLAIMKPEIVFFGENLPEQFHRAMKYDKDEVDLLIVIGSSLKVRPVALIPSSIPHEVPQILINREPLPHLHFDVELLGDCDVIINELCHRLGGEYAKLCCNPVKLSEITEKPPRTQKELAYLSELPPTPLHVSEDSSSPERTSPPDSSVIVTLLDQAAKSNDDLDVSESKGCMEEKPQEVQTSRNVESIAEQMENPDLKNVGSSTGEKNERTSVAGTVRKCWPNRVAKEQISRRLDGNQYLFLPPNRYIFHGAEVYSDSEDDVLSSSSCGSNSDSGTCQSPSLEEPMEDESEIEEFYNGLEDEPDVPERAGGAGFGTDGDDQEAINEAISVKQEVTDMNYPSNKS
Assay: Mass spectrometry based SIRT1 deacetylation (activation) assay
Assay type: biochemical
Conditions: 0.5 μM peptide substrate, 120 μM βNAD+, 10 nM SIRT1, 25 min at 25° C.; for Emax: 25 min, read-out: % Fold Act. (percent maximum fold activation)

EC1.5 | Emax [%] | SMILES
A (EC1.5≦1 uM) | ≥ 300 | CCN(CCN(C)C)c1cc(C(=O)Nc2ccccc2C(=O)NC2CCC2)nc(-c2ccccc2)n1 [Compound 164, N-(2-(cyclobutylcarbamoyl)phenyl)-6-((2-(dimethylamino)ethyl)(ethyl)amino)-2-phenylpyrimidine-4-carboxamide]
A (EC1.5≦1 uM) | 150 to 300 | CCN(CCN(C)C)c1cc(C(=O)Nc2ccccc2C(=O)NC2CCCCC2)nc(-c2ccccc2)n1 [Compound 165, N-(2-(cyclohexylcarbamoyl)phenyl)-6-((2-(dimethylamino)ethyl)(ethyl)amino)-2-phenylpyrimidine-4-carboxamide]
B (EC1.5>1 and ≦10 uM) | 150 to 300 | CCN(CCN(C)C)c1cc(C(=O)Nc2ccccc2C(=O)NC2CCN(C(=O)OC(C)(C)C)CC2)nc(-c2ccccc2)n1 [Compound 166, tert-butyl 4-(2-(6-((2-(dimethylamino)ethyl)(ethyl)amino)-2-phenylpyrimidine-4-carboxamido)benzamido)piperidine-1-carboxylate]
A (EC1.5≦1 uM) | ≥ 300 | CCN(CCN(C)C)c1cc(C(=O)Nc2ccccc2C(=O)NC2CCNCC2)nc(-c2ccccc2)n1 [Compound 167, 6-((2-(dimethylamino)ethyl)(ethyl)amino)-2-phenyl-N-(2-(piperidin-4-ylcarbamoyl)phenyl)pyrimidine-4-carboxamide]
A (EC1.5≦1 uM) | 150 to 300 | CCN(CCN(C)C)c1cc(C(=O)Nc2ccccc2C(=O)NC2CC2)nc(-c2ccccc2)n1 [Compound 168, N-(2-(cyclopropylcarbamoyl)phenyl)-6-((2-(dimethylamino)ethyl)(ethyl)amino)-2-phenylpyrimidine-4-carboxamide]
B (EC1.5>1 and ≦10 uM) | ≥ 300 | CCN(CCN(C)C)c1cc(C(=O)Nc2ccccc2C(=O)NC2CCCC2)nc(-c2ccccc2)n1 [Compound 169, N-(2-(cyclopentylcarbamoyl)phenyl)-6-((2-(dimethylamino)ethyl)(ethyl)amino)-2-phenylpyrimidine-4-carboxamide]
A (EC1.5≦1 uM) | ≥ 300 | CCN(CCN(C)C)c1cc(C(=O)Nc2ccccc2C(=O)N[C@@H]2CCCC[C@@H]2O)nc(-c2ccccc2)n1 [Compound 170, 6-((2-(dimethylamino)ethyl)(ethyl)amino)-N-(2-((1R,2S)-2-hydroxycyclohexylcarbamoyl)phenyl)-2-phenylpyrimidine-4-carboxamide]
A (EC1.5≦1 uM) | ≥ 300 | CCN(CCN(C)C)c1cc(C(=O)Nc2ccccc2C(=O)N[C@@H]2CCCC[C@H]2O)nc(-c2ccccc2)n1 [Compound 171, 6-((2-(dimethylamino)ethyl)(ethyl)amino)-N-(2-((1R,2R)-2-hydroxycyclohexylcarbamoyl)phenyl)-2-phenylpyrimidine-4-carboxamide]
B (EC1.5>1 and ≦10 uM) | 150 to 300 | CCN(CCN(C)C)c1cc(C(=O)Nc2ccccc2C(=O)NC2CCCN(C(=O)OC(C)(C)C)C2)nc(-c2ccccc2)n1 (stereo not drawn) [Compound 172, tert-butyl 3-(2-(6-((2-(dimethylamino)ethyl)(ethyl)amino)-2-phenylpyrimidine-4-carboxamido)benzamido)piperidine-1-carboxylate]
B (EC1.5>1 and ≦10 uM) | ≥ 300 | CCN(CCN(C)C)c1cc(C(=O)Nc2ccccc2C(=O)NC2CCN(C(=O)OC(C)(C)C)C2)nc(-c2ccccc2)n1 (stereo not drawn) [Compound 173, tert-butyl 3-(2-(6-((2-(dimethylamino)ethyl)(ethyl)amino)-2-phenylpyrimidine-4-carboxamido)benzamido)pyrrolidine-1-carboxylate]
B (EC1.5>1 and ≦10 uM) | ≥ 300 | CCN(CCN(C)C)c1cc(C(=O)Nc2ccccc2C(=O)NC2CCCNC2)nc(-c2ccccc2)n1 (stereo not drawn) [Compound 174, 6-((2-(dimethylamino)ethyl)(ethyl)amino)-2-phenyl-N-(2-(piperidin-3-ylcarbamoyl)phenyl)pyrimidine-4-carboxamide]

More lines, now with the values behind:

SMILES | EC1.5 | Emax [%]
CN(C)CCNc1cc(C(=O)Nc2ccccc2C(=O)Nc2cccc(S(C)(=O)=O)c2)nc(-c2ccccc2)n1 [Compound 154, 6-(2-(dimethylamino)ethylamino)-N-(2-(3-(methylsulfonyl)phenylcarbamoyl)phenyl)-2-phenylpyrimidine-4-carboxamide] | A (EC1.5≦1 uM) | ≥ 300
CN(C)CCNc1cc(C(=O)Nc2ccccc2C(=O)Nc2cccnc2)nc(-c2ccccc2)n1 [Compound 155, 6-(2-(dimethylamino)ethylamino)-2-phenyl-N-(2-(pyridin-3-ylcarbamoyl)phenyl)pyrimidine-4-carboxamide] | A (EC1.5≦1 uM) | ≥ 300
CN(C)CCNc1cc(C(=O)Nc2ccccc2C(=O)Nc2ccncc2)nc(-c2ccccc2)n1 [Compound 156, 6-(2-(dimethylamino)ethylamino)-2-phenyl-N-(2-(pyridin-4-ylcarbamoyl)phenyl)pyrimidine-4-carboxamide] | A (EC1.5≦1 uM) | ≥ 300
CN(C)CCNc1cc(C(=O)Nc2ccccc2C(=O)Nc2ccc(C(N)=O)cc2)nc(-c2ccccc2)n1 [Compound 157, N-(2-(4-carbamoylphenylcarbamoyl)phenyl)-6-(2-(dimethylamino)ethylamino)-2-phenylpyrimidine-4-carboxamide] | A (EC1.5≦1 uM) | 150 to 300
CN(C)CCNc1cc(C(=O)Nc2ccccc2C(=O)Nc2ccccn2)nc(-c2ccccc2)n1 [Compound 158, 6-(2-(dimethylamino)ethylamino)-2-phenyl-N-(2-(pyridin-2-ylcarbamoyl)phenyl)pyrimidine-4-carboxamide] | A (EC1.5≦1 uM) | 150 to 300
CCN(CCN(C)C)c1cc(C(=O)Nc2ccccc2Br)nc(-c2ccccc2)n1 [Compound 159] | B (EC1.5>1 and ≦10 uM) | 150 to 300
CCN(CCN(C)C)c1cc(C(=O)Nc2ccccc2C(=O)Nc2ccccc2C(N)=O)nc(-c2ccccc2)n1 [Compound 160, N-(2-(2-carbamoylphenylcarbamoyl)phenyl)-6-((2-(dimethylamino)ethyl)(ethyl)amino)-2-phenylpyrimidine-4-carboxamide] | A (EC1.5≦1 uM) | ≥ 300
CN(C)CCNc1cc(C(=O)Nc2ccccc2C(=O)Nc2cc(Cl)ccc2Cl)nc(-c2ccccc2)n1 [Compound 161, N-(2-(2,5-dichlorophenylcarbamoyl)phenyl)-6-(2-(dimethylamino)ethylamino)-2-phenylpyrimidine-4-carboxamide] | B (EC1.5>1 and ≦10 uM) | 150 to 300
CN(C)CCNc1cc(C(=O)Nc2ccccc2C(=O)Nc2c(Cl)cccc2Cl)nc(-c2ccccc2)n1 [Compound 162, N-(2-(2,6-dichlorophenylcarbamoyl)phenyl)-6-(2-(dimethylamino)ethylamino)-2-phenylpyrimidine-4-carboxamide] | A (EC1.5≦1 uM) | ≥ 300
CN(C)CCNc1cc(C(=O)Nc2ccccc2C(=O)Nc2ccccc2S(C)(=O)=O)nc(-c2ccccc2)n1 [Compound 163, 6-(2-(dimethylamino)ethylamino)-N-(2-(2-(methylsulfonyl)phenylcarbamoyl)phenyl)-2-phenylpyrimidine-4-carboxamide] | B (EC1.5>1 and ≦10 uM) | 150 to 300
